Read-outs that look alike come from different tables or passages of the source.
Key:
[1] = tested on: EBOV-GP-Pseudotype Virus (pEBOV)
[2] = in vitro; conditions: human
[3] = tested on: EBOV-GP-Pseudotype Virus (pEBOV); test: microbe, parasite or virus in culture; conditions: Zaire ebolavirus, 48 h; for inhibition at 10 µM: M-HeLa, read-out: %inh@10 μM (pEBOV); for EC50: HeLa, read-out: EC50 (μM) (pEBOV)
[4] = tested on: VSV-G-pseudotype virus (pVSV-G); test: microbe, parasite or virus in culture; format: cell-based; conditions: Vesicular stomatitis virus, read-out: %inh@10 µM (pVSV-G)
[5] = in vitro; conditions: chlorocebus sabaeus
[6] = tested on: wild-type Zaire EBOV Mayinga 1976 strain (EBOV May); test: microbe, parasite or virus in culture; conditions: Zaire ebolavirus, Vero C1008, 72 h, read-out: EC50 (μM), replicative EBOV
[7] = tested on: wild-type Zaire EBOV Mayinga 1976 strain (EBOV May)
[8] = molecular target: EBOV-GPcl/NPC1-domain C (Zaire ebolavirus, UniProt Q05320); format: binding, Homo sapiens
Sequence of EBOV-GPcl/NPC1-domain C (Q05320 33-190 limits assumed): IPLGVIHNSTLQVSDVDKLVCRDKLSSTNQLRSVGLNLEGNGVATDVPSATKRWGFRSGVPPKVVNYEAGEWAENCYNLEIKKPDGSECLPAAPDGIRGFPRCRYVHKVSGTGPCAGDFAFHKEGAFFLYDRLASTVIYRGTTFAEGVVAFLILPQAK
Sequence of EBOV-GPcl/NPC1-domain C (Q05320 502-676 limits assumed): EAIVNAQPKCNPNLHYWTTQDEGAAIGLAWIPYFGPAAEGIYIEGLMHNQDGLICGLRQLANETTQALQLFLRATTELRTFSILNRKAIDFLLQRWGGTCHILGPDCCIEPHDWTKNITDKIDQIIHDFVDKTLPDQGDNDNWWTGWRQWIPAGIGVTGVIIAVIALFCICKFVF

[9] = pH 7.4
[10] = CD-1, mouse, pH 7.4
[11] = molecular target: T1, hERG potassium channel (Homo sapiens, UniProt Q12809)
T1 sequence (Q12809 whole entry): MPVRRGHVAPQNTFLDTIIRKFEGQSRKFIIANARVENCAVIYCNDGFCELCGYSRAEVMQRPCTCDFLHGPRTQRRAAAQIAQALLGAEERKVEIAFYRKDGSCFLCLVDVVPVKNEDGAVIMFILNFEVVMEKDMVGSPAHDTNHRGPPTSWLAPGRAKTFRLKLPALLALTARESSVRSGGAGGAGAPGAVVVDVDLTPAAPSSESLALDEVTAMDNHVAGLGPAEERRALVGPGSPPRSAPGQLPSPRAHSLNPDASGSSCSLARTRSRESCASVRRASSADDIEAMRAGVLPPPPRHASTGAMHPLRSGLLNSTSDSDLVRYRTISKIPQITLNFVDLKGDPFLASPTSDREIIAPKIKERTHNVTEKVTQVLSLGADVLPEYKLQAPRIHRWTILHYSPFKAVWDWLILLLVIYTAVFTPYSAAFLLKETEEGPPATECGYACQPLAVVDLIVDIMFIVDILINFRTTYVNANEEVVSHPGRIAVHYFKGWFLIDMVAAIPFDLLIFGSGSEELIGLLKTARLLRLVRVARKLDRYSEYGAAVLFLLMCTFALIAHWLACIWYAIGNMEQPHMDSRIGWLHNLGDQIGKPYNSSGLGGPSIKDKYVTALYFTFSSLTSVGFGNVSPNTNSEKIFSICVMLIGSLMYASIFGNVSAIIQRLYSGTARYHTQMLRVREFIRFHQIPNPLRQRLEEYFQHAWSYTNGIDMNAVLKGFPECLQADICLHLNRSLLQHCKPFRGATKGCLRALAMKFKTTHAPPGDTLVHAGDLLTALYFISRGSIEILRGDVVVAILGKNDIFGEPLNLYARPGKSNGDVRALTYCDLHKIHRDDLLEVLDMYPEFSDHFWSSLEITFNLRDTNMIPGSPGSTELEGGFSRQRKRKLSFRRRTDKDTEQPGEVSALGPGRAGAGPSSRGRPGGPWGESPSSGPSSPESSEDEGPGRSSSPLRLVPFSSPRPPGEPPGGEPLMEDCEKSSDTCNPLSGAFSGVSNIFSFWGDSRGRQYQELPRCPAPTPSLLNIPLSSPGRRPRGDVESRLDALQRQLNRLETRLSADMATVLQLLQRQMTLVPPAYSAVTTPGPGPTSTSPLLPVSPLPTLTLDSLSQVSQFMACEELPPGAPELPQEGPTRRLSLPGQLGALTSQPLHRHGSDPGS

[12] = male, BALB/c, mouse, in vivo
[13] = in vivo; conditions: male, BALB/c, mouse; for Cmax at 24 h: Cmax (ng/mL)
[14] = in vitro; conditions: human, microsomes, pH 7.4
[15] = in vitro; conditions: CD-1, mouse, microsomes, pH 7.4
[16] = molecular target: T1, hERG potassium channel; test: in vitro; conditions: pH 7.2
[17] = ip, 10 mg/kg, Brain-Kp (AUClast)
[18] = po, 50 mg/kg, Brain-Kp (AUClast)

Structure (SMILES) | CC50 [2] [µM] | inhibition at 10 µM [3] [%] | inhibition at 10 µM [4] [%] | SI (pEBOV) (CC50/EC50) [1] | CC50 at 24 h [2] [µM] | EC50 [3] [µM] | EC50 [6] [µM] | further results
O=C(CCN1CCCCC1)NN(c1ccccc1)c1ccccc1 [Compound 19, N′,N′-Diphenyl-3-(piperidin-1-yl)propanehydrazide] | > 10 | 60 | – | – | – | – | – | antiviral activity against pEBOV, in words [1]: inactive
CN1CCN(CCC(=O)Nn2c3ccccc3c3ccccc32)CC1 [Compound 3] | – | – | 10 | 62.5 | 150 | 2.4 | – | –
CN1CCN(CCC(=O)NN(Cc2ccccc2)c2ccccc2)CC1 [Compound 34, N′-Benzyl-3-(4-methylpiperazin-1-yl)-N′-phenylpropanehydrazide] | > 10 | < 75 | – | – | – | – | – | antiviral activity against pEBOV, in words [1]: inactive
CN1CCN(CCC(=O)NN(c2ccccc2)c2ccccc2)CC1 [Compound 14, 3-(4-Methylpiperazin-1-yl)-N′,N′-diphenylpropanehydrazide] | > 100 | – | 2 | 358 | – | 0.27 | > 100 | CC50 [5]: > 100 µM
O=C(CNCCN1CCN(Cc2ccccc2)CC1)NN(c1ccccc1)c1ccccc1 [Compound 12, 2-((2-(4-Benzylpiperazin-1-yl)ethyl)amino)-N′,N′-diphenylacetohydrazide] | – | – | -29 | 63 | 108 | 2.17 | 7.8 | SI (CC50/EC50), replicative EBOV [7]: 12.9; CC50 at 24 h [5]: 101 µM
CN(C)CC(=O)Nn1c2ccccc2c2ccccc21 [Compound 4] | – | < 75 | – | – | – | – | – | antiviral activity against pEBOV, in words [1]: inactive
O=C(CNCCC1CCN(Cc2ccccc2)CC1)NN(c1ccccc1)c1ccccc1 [Compound 10, 2-((2-(1-Benzylpiperidin-4-yl)ethyl)amino)-N′,N′-diphenylacetohydrazide] | – | – | 2 | 15 | 48 | 3.13 | 1.9 | SI (CC50/EC50), replicative EBOV [7]: 16.9; CC50 at 24 h [5]: 32.2 µM
CN(C)CCC(=O)Nn1c2ccccc2c2ccccc21 [Compound 5] | – | < 75 | – | – | – | – | – | antiviral activity against pEBOV, in words [1]: inactive
O=C(CCN1CCCCC1)Nn1c2ccccc2c2ccccc21 [Compound 7] | – | – | 30 | 1.78 | 5 | 2.8 | – | –
O=C(CCNCCC1CCN(Cc2ccccc2)CC1)NN(Cc1ccccc1)c1ccccc1 [Compound 31, N′-Benzyl-3-((2-(1-benzylpiperidin-4-yl)ethyl)amino)-N′-phenylpropanehydrazide] | > 10 | < 75 | – | – | – | – | – | antiviral activity against pEBOV, in words [1]: inactive
O=C(CNCCC1CCN(Cc2ccccc2)CC1)NC1c2ccccc2-c2ccccc21 [Compound 9, 2-((2-(1-Benzylpiperidin-4-yl)ethyl)amino)-N-(9H-fluoren-9-yl)acetamide] | – | – | -10 | 93 | 159 | 1.7 | 0.25 | SI (CC50/EC50), replicative EBOV [7]: 134.6; CC50 at 24 h [5]: 33.6 µM
O=C(CCl)Nn1c2ccccc2c2ccccc21 [Compound 8] | – | < 75 | – | – | – | – | – | antiviral activity against pEBOV, in words [1]: inactive
O=C(CCN1CCCC1)Nn1c2ccccc2c2ccccc21 [Compound 6] | – | – | 9 | 21.7 | 28 | 1.29 | – | –
O=C(CNCCN1CCOCC1)NN(c1ccccc1)c1ccccc1 [Compound 22, 2-((2-Morpholinoethyl)amino)-N′,N′-diphenylacetohydrazide] | > 10 | 27 | – | – | – | – | – | –
CCOC(=O)C1CCN(CC(=O)N(c2ccccc2)c2ccccc2)CC1 [Compound 41, Ethyl 1-(2-(Diphenylamino)-2-oxoethyl)piperidine-4-carboxylate] | > 100 | 40 | – | – | – | – | – | –
CCCCCC(=O)N(c1ccccc1)c1ccccc1 [Compound 44, N,N-Diphenylhexanamide] | > 100 | 32 | – | – | – | – | – | –
O=C(CCNCCN1CCN(Cc2ccccc2)CC1)NN(c1ccccc1)c1ccccc1 [Compound 13, 3-((2-(4-Benzylpiperazin-1-yl)ethyl)amino)-N′,N′-diphenylpropanehydrazide] | – | – | 42 | – | 159 | 0.58 | 2.7 | loss of binding between EBOV-GPcl/NPC1-domain C [8]: interferes with the NPC1/EBOV-GPcl interaction similarly than our hit 1 (SC816); CLint (mL/min/mg protein), human liver microsomes [9]: 10.8 ± 0.3 mL/min/mg protein; CLint (mL/min/mg protein), mouse liver microsomes [10]: 170 ± 20 mL/min/mg protein; cardiotoxicity classification from hERG IC50 [11]: not cardiotoxic; Cmax ([12]; ip, 10 mg/kg, 24 h): 170.55 ng/mL; half-life at 24 h ([13]; ip, 10 mg/kg): 46.2 min; Kp at 24 h [13, 17]: 46.4; Kp at 24 h ([13]; ip, 10 mg/kg, Brain-Kp (Cmax)): 0.99; Cmax at 24 h ([13]; ip, 10 mg/kg): 172 ng/mL; half-life at 24 h ([13]; po, 50 mg/kg): 262 min; Kp at 24 h [13, 18]: 46.5; Kp at 24 h ([13]; po, 50 mg/kg, Brain-Kp (Cmax)): 3.65; CC50 at 24 h [5]: 35.5 µM; half-life at 1 h, 10 µM [14]: 53 ± 2 min; half-life at 1 h, 10 µM [15]: 14 ± 2 min; IC50 [16]: 14.9 µM
CCOC(=O)CCCCCCNCC(=O)N(c1ccccc1)c1ccccc1 [Compound 43, Ethyl 7-((2-(Diphenylamino)-2-oxoethyl)amino)heptanoate] | > 100 | 35 | – | – | – | – | – | –
O=C(CCNCCN1CCN(Cc2ccccc2)CC1)NN(Cc1ccccc1)c1ccccc1 [Compound 32, N′-Benzyl-3-((2-(4-benzylpiperazin-1-yl)ethyl)amino)-N′-phenylpropanehydrazide] | – | – | -36 | 19.2 | 70 | 3.63 | – | –
O=C(CNCCC1CCN(Cc2ccccc2)CC1)N(c1ccccc1)c1ccccc1 [Compound 40, 2-((2-(1-Benzylpiperidin-4-yl)ethyl)amino)-N,N-diphenylacetamide] | – | 8 | – | – | 100 | – | – | –
O=C(CCNCCC1CCN(Cc2ccccc2)CC1)Nn1c2ccccc2c2ccccc21 [Compound 2] | – | – | 10 | 2.87 | 0.46 | 0.16 | 0.52 | SI (CC50/EC50), replicative EBOV [7]: 9.1; CC50 at 24 h [5]: 4.75 µM
O=C(CCNCCC1CCN(Cc2ccccc2)CC1)NN(c1ccccc1)c1ccccc1 [Compound 11, 3-((2-(1-Benzylpiperidin-4-yl)ethyl)amino)-N′,N′-diphenylpropanehydrazide] | – | – | 50 | – | 6 | 0.05 | 0.3 | loss of binding between EBOV-GPcl/NPC1-domain C [8]: does it to a lesser extent; CLint (mL/min/mg protein), human liver microsomes [9]: 13 ± 1 mL/min/mg protein; CLint (mL/min/mg protein), mouse liver microsomes [10]: 96 ± 23 mL/min/mg protein; cardiotoxicity classification from hERG IC50 [11]: not cardiotoxic; estimated concentration on plasma [12]: 0.62 µM; AUClast ([12]; po, 50 mg/kg, 24 h): 3354.96 ng·h/mL; Cmax ([12]; po, 50 mg/kg, 24 h): 201.45 ng/mL; Kp at 24 h [13, 17]: 2.04; Kp at 24 h ([13]; ip, 10 mg/kg, Brain-Kp (Cmax)): 0.18; half-life at 24 h ([13]; po, 50 mg/kg): 352 min; AUC(0-t) at 24 h ([13]; po, 50 mg/kg, AUClast (h × ng/mL)): 2020 ng·h/mL; Kp at 24 h [13, 18]: 1.66; Kp at 24 h ([13]; po, 50 mg/kg, Brain-Kp (Cmax)): 0.72; Cmax at 24 h ([13]; po, 50 mg/kg): 278 ng/mL; CC50 at 24 h [5]: 9.47 µM; half-life at 1 h, 10 µM [14]: 45 ± 3 min; half-life at 1 h, 10 µM [15]: 26 ± 6 min; IC50 [16]: 16.4 µM
O=C(CNCCc1ccccc1)N(c1ccccc1)c1ccccc1 [Compound 42, 2-(Phenethylamino)-N,N-diphenylacetamide] | > 100 | 38 | – | – | – | – | – | –
CN1CCN(CC(=O)NN(Cc2ccccc2)c2ccccc2)CC1 [Compound 33] | > 100 | 13 | – | – | – | – | > 100 | antiviral activity against pEBOV, in words [1]: inactive; CC50 [5]: > 100 µM
O=C(Cc1ccc(Br)cc1)NN(c1ccccc1)c1ccccc1 [Compound 29, 2-(4-Bromophenyl)-N′,N′-diphenylacetohydrazide] | > 10 | 73 | – | – | – | – | – | –
O=C(CNCCC1CCN(Cc2ccccc2)CC1)NN(Cc1ccccc1)c1ccccc1 [Compound 30, N′-Benzyl-2-((2-(1-benzylpiperidin-4-yl)ethyl)amino)-N′-phenylacetohydrazide] | – | – | -25 | 62 | 106 | 1.05 | – | –

Source: article PMC10150359 (Journal of Medicinal Chemistry, 2023)
